The source of these data is US20050203059A1, “Methods and compositions for treatment of ischemia” (priority 2002, published 2005).

One data set concerns GSK3. Description: Cell-based glycogen synthase assay for GSK3 inhibitory activity (CHO-HIRC cells). As to conditions: read-out: EC50 (glycogen synthase activity stimulated to 50% of the maximal level), 20 minutes incubation. The procedure: Likewise, the ability of GSK3 inhibitor compounds to potentiate insulin signaling by activating glycogen synthase can be readily ascertained using a cell-based glycogen synthase activity assay. This assay employs cells that respond to insulin stimulation by increasing glycogen synthase activity, such as the CHO-HIRC cell line, which overexpresses wild-type insulin receptor (˜100,000 binding sites/cell). […] The assay can be carried out by incubating serum-starved CHO-HIRC cells in the presence of various concentrations of compounds of the present invention in the medium, followed by cell lysis at the end of the incubation period. […] The concentration of candidate GSK3 inhibitor that increased glycogen synthase activity to half of its maximal level (i.e., the EC50) can be calculated by fitting a four parameter sigmoidal curve using routine curve fitting methods that are well known to those having ordinary skill in the art.
CHO-HIRC cells are maintained in 10 cm tissue culture plates in Ham's F12 medium/10% dialyzed fetal bovine serum. Cells from a confluent 10 cm plate are harvested and divided into the 6 wells of a 6-well tissue culture plate to a final volume of 2 ml of medium. The cells are left to grow at 37° C. for 24 hours. The cells are then washed three times in Ham's F12 medium containing no fetal bovine serum, and finally the cells are left for a further 24 hours at 37° C. in 2 ml of the serum-free medium.
At the end of this time, 20 μl of compound dissolved in DMSO is added to each well and incubated at 37° C. After 20 minutes the medium is removed and the cells are washed once in PBS at room temperature and then rapidly frozen in the plates in liquid nitrogen. […] Cells are scraped from the plates and frozen in Eppendorf tubes on dry ice. Lysates are then thawed and refrozen on dry ice.
After rethawing, lysates are spun at 14,000 g for 15 minutes. The supernatants are then removed and stored on ice. […] Reactions are incubated at 30° C. for 30 minutes and then spotted onto a 2 cm square 31ET chromatograph paper (Whatman).
Filters are added to 5 ml of liquid scintillant and counted in a liquid scintillation counter. The percentage of the total glycogen synthase that is active in any lysate is expressed as 100× (cpm minus glucose-6-phosphate)/(cpm plus glucose-6-phosphate). Such values are determined in duplicate for 5 different concentrations of compound and for DMSO alone, and the values are then plotted against the logarithm of the concentration. The concentration of compound which stimulates glycogen synthase activity to 50% of the maximal level is determined by fitting a sigmoidal curve to the plotted data. The maximal level is defined as that level to which glycogen synthase activity tends asymtotically as the concentration of test compound increases substantially beyond the EC50.

A further data set has as its system rat hippocampi cells. The data set can be described thus: GSK3 inhibitor protection of rat hippocampi cells from glutamate induced damage (Trypan Blue count). It counts as cell-based. More on the design: Cells Surviving (%) Without Glutamate (control): concentration or dose not given beside the values. As to conditions: rat hippocampal neurons, average of 1 to 4 replications; for Cells Surviving (%) With Glutamate: 200 μM glutamic acid for 5 minutes, counted 20 to 24 hours later; for Cells Surviving (%) Without Glutamate (control): not exposed to glutamic acid. The procedure: Hippocampi were dissected from embryonic day 18-19 rats. The tissue was collected in Hibernate™ media (Gibco BRL) and minced into 1 mm pieces. The tissue was dissociated using the Papain Dissociation System (Worthington Biochemical Corporation). Following isolation the cells were suspended in serum-free media composed of Neurobasal™ (Gibco BRL), 2% B27 supplement (Gibco BRL), L-glutamine and antibiotics. Cells were plated in 12 well plates tissue culture dishes coated with poly-L-lysine at a concentration of 7.5×10^4 cells per well. Following 10-14 days at 37° C. in 5% CO2, the GSK3 inhibitor compounds set forth below were added. Four to eight hours following compound addition, the conditioned media was removed from the cells and the cultures were stored at 37° C. […] The cultures were then either exposed for 5-minutes at room temperature to 200 μM glutamic acid in the same HBSS, or not exposed to glutamic acid as a control. Following exposure, the cultures were rinsed three times with the buffer and then returned to their original conditioned media containing the GSK3 inhibitor compounds. Twenty to 24 hours following glutamic acid exposure, the cultures were rinsed in HBSS and exposed for 10 minutes to Trypan Blue. This dye is taken up by dead cells. The cultures were rinsed then fixed for 30 minutes in 4% paraformaldehyde. The number of live and dead (blue) large neurons are counted (at least 200 cells from each well) by phase contrast microscopy and photographed, and the percentage of surviving cells was determined. […] The results are shown in the following Table 2 as the average of 1 to 4 replications: […]

A short description of data set [1]: Blood brain barrier penetration / plasma drug levels after intravenous dosing in CD rats. Format: in vivo, rat. The conditions noted are these: 10 mg/kg intravenously. The method, then:
GSK3 inhibitor blood brain barrier penetration may generally be measured by administering a GSK3 inhibitor compound formulated in 15% captisol/20 mM sodium citrate to a final dose of 10 mg/kg intravenously through a jugular catheter into 250 g CD rats. At 150 minutes post administration brains from the rats were isolated and fast frozen. GSK3 inhibitor plasma levels in the isolated material were established using standard techniques.

Regarding `CN1CCN(c2cnc(NCCNc3ccc([N+](=O)[O-])c(N)n3)nc2-c2ccc(Cl)cc2Cl)CC1` [N], the EC50 in the data set with GSK3 turned out to be 53.4 nM. Further, in the data set with rat hippocampi cells, the “Cells Surviving (%) With Glutamate” value turned out to be 67% and the “Cells Surviving (%) Without Glutamate (control)” value is listed as 91%.
Consider `Nc1nc(NCCNc2ncc(N3CCOCC3)c(-c3ccc(Cl)cc3Cl)n2)ccc1[N+](=O)[O-]` [U], for which, in the data set on GSK3, the EC50 amounted to 73.5 nM. For the same compound, in the data set with rat hippocampi cells, the “Cells Surviving (%) With Glutamate” value worked out at 62% and the “Cells Surviving (%) Without Glutamate (control)” value amounted to 93%.
Turning to `COCCNC(=O)Cn1c(=O)n(C2CCN(C(=O)N3CCc4ccccc4C3)CC2)c2ccccc21` [E], in the data set with rat hippocampi cells, the “Cells Surviving (%) With Glutamate” value came to 73% and the “Cells Surviving (%) Without Glutamate (control)” value amounted to 88%.
Take `FC(F)(F)c1ccc(NCCNc2ncc(-c3ncc[nH]3)c(-c3ccc(Cl)cc3Cl)n2)nc1` [V]: the EC50 with GSK3 turned out to be 1240 nM. Moreover, in the data set with rat hippocampi cells, the “Cells Surviving (%) With Glutamate” value was 49% and the “Cells Surviving (%) Without Glutamate (control)” value is given as 94%.
For `Nc1nc(NCCNc2ncc(-n3cccn3)c(-c3ccc(Cl)cc3Cl)n2)ccc1[N+](=O)[O-]` [W], in the data set with GSK3, the EC50 amounted to 99.8 nM. Further, in the data set with rat hippocampi cells, the “Cells Surviving (%) With Glutamate” value was found to be 61% and the “Cells Surviving (%) Without Glutamate (control)” value was 94%.
The matching figures for `N#Cc1ccc(-c2nc(NCCNc3ccc([N+](=O)[O-])cn3)ncc2-n2ccnc2)cc1` [T]: 1280 nM, 50% and 95%.
With `Nc1nc(NCCNc2ncc(CO)c(-c3ccc(Cl)cc3Cl)n2)ccc1[N+](=O)[O-]` [K], the EC50 in the data set on GSK3 came out at 147 nM. Further, in the data set on rat hippocampi cells, the “Cells Surviving (%) With Glutamate” value was found to be 73% and the “Cells Surviving (%) Without Glutamate (control)” value is reported as 86%.
For the compound `Nc1nc(NCCNc2ncc(NC(=O)NCCN3CCOCC3)c(-c3ccc(Cl)cc3Cl)n2)ccc1[N+](=O)[O-]` [D], the EC50 in the data set with GSK3 was 3000 nM. For the same compound, in the data set on rat hippocampi cells, the “Cells Surviving (%) With Glutamate” value was determined as 60% and the “Cells Surviving (%) Without Glutamate (control)” value is 96%.
With `O=[N+]([O-])c1ccc(NCCNc2ncc(-c3ncc[nH]3)c(-c3ccc(Cl)cc3Cl)n2)nc1` [J], the EC50 in the data set with GSK3 turned out to be 375 nM. In the data set on rat hippocampi cells, the “Cells Surviving (%) With Glutamate” value came to 57% and the “Cells Surviving (%) Without Glutamate (control)” value was 95%.
For the compound `Nc1nc(NCCNc2ncc(-c3ncc[nH]3)c(-c3ccc(F)cc3Cl)n2)ccc1[N+](=O)[O-]` [X], the EC50 with GSK3 was determined as 424 nM. Further, in the data set on rat hippocampi cells, the “Cells Surviving (%) With Glutamate” value worked out at 50% and the “Cells Surviving (%) Without Glutamate (control)” value was 93%.
For `N#Cc1ccc(NCCNc2ncc(-c3ccncc3)c(-c3ccc(Cl)cc3Cl)n2)nc1` [I], the EC50 with GSK3 is 184 nM. Also, in the data set with rat hippocampi cells, the “Cells Surviving (%) With Glutamate” value is on record as 56% and the “Cells Surviving (%) Without Glutamate (control)” value is reported as 94%. Besides, the CL in data set [1] was 114 [ml/min]/kg. In addition, the “Brain (at end of study) drug level” value in data set [1] (brains isolated at 150 minutes post administration) is recorded as “<LOQ”. In data set [1] (rat, plasma, iv), the AUC is 145 ng·h/mL, the highest level (Cmax) was 1200 ng/mL, the Tmax was approximately 0 h and the half-life came to 42 min. In addition, the Vd in data set [1] (rat, plasma, iv, read-out: Vss) worked out at 6.8 L/kg. The compound also came in with a concentration at 0 min in data set [1] (rat, plasma, iv, time 0 min) of less than 20 ng/mL. In data set [1] (rat, plasma, iv, time 7 min), this compound returned a concentration at 7 min of 1190 ng/mL. The same compound displayed a concentration at 20 min in data set [1] (rat, plasma, iv, time 20 min) of 1160 ng/mL. In data set [1] (rat, plasma, iv, time 40 min), this compound had a concentration at 40 min of 614 ng/mL. The concentration at 70 min in data set [1] (rat, plasma, iv, time 70 min) worked out at 440 ng/mL. For the same compound, the concentration at 100 min in data set [1] (rat, plasma, iv, time 100 min) was 358 ng/mL. For the same compound, the concentration at 150 min in data set [1] (rat, plasma, iv, time 150 min) was found to be 106 ng/mL.
On to `Nc1nc(NCCNc2ncc(-n3ccccc3=O)c(-c3ccc(Cl)cc3Cl)n2)ccc1[N+](=O)[O-]` [R], for which the EC50 in the data set with GSK3 stood at 14 nM. In the data set on rat hippocampi cells, the “Cells Surviving (%) With Glutamate” value worked out at 61% and the “Cells Surviving (%) Without Glutamate (control)” value worked out at 92%.
The matching figures for `Nc1nc(NCCNc2ncc(-c3ncc[nH]3)c(-c3ccc(Cl)cc3Cl)n2)ccc1[N+](=O)[O-]` [L]: 257 nM, 59% and 90%.
As for `CNCC(=O)Nc1cnc(NCCNc2ccc([N+](=O)[O-])c(N)n2)nc1-c1ccc(Cl)cc1Cl` [P], the EC50 with GSK3 was 701 nM. Also, in the data set on rat hippocampi cells, the “Cells Surviving (%) With Glutamate” value is 55% and the “Cells Surviving (%) Without Glutamate (control)” value came to 91%.
For `Nc1nc(NCCNc2ncc(-n3ccnc3)c(-c3ccc(Cl)cc3Cl)n2)ccc1[N+](=O)[O-]` [Y], the EC50 in the data set with GSK3 turned out to be 75 nM. Moreover, in the data set with rat hippocampi cells, the “Cells Surviving (%) With Glutamate” value was 61% and the “Cells Surviving (%) Without Glutamate (control)” value came to 94%.
As to `Nc1nc(NCCNc2ncc(-c3ncc[nH]3)c(-c3ccc(F)cc3Br)n2)ccc1[N+](=O)[O-]` [Compound S], the EC50 in the data set on GSK3 turned out to be 220 nM. Besides, in the data set on rat hippocampi cells, the “Cells Surviving (%) With Glutamate” value is on record as 50% and the “Cells Surviving (%) Without Glutamate (control)” value turned out to be 95%.
As for `FC(F)(F)c1ccc(NCCNc2ccc(-c3ncc[nH]3)c(-c3ccc(Cl)cc3Cl)n2)nc1` [F], in the data set on rat hippocampi cells, the “Cells Surviving (%) With Glutamate” value came out at 51% and the “Cells Surviving (%) Without Glutamate (control)” value came to 96%.
On to `CN(CCNc1ccc([N+](=O)[O-])c(N)n1)c1ncc(-c2ncc[nH]2)c(-c2ccc(Cl)cc2Cl)n1` [Q], for which the EC50 in the data set with GSK3 turned out to be 17 nM. Besides, in the data set with rat hippocampi cells, the “Cells Surviving (%) With Glutamate” value is 67% and the “Cells Surviving (%) Without Glutamate (control)” value was 95%.
As for “IGF1: IGF1, used as a control in the rat hippocampi cell survival test”, in the data set with rat hippocampi cells, the “Cells Surviving (%) With Glutamate” value was 51% and the “Cells Surviving (%) Without Glutamate (control)” value stood at 93%.
Turning to `Nc1nc(NCCNc2ncc(N3C(=O)CCC3=O)c(-c3ccc(Cl)cc3Cl)n2)ccc1[N+](=O)[O-]` [M], in the data set with GSK3, the EC50 was determined as 85 nM. In addition, in the data set with rat hippocampi cells, the “Cells Surviving (%) With Glutamate” value was found to be 61% and the “Cells Surviving (%) Without Glutamate (control)” value came to 87%.
For `O=[N+]([O-])c1ccc(NCCNc2ccc(-c3ncc[nH]3)c(-c3ccc(Cl)cc3Cl)n2)nc1` [H], the EC50 in the data set with GSK3 came out at 121 nM. Besides, in the data set on rat hippocampi cells, the “Cells Surviving (%) With Glutamate” value turned out to be 67% and the “Cells Surviving (%) Without Glutamate (control)” value is 94%.
For `Nc1nc(NCCNc2ncc(-n3cc(Cl)ccc3=O)c(-c3ccc(Cl)cc3Cl)n2)ccc1[N+](=O)[O-]` [O], in the data set on GSK3, the EC50 was 132 nM. Moreover, in the data set with rat hippocampi cells, the “Cells Surviving (%) With Glutamate” value is recorded as 61% and the “Cells Surviving (%) Without Glutamate (control)” value worked out at 94%.

A word on the EC50: it is the concentration at which the effect is half-maximal. By AUC is commonly meant the area under the concentration-time curve, a measure of exposure. As usually defined, the Cmax is the maximum level reached in the sampled fluid or tissue. The Tmax is the time at which the peak concentration occurs. The term half-life denotes how long it takes for the measured level to halve.
